# Experiments:
# [1] = test system: human neutrophil suspension; assay: Neutrophil adhesion test with LPS-activated human neutrophils (96-well plate, crystal violet, OD620); assay type: cell-based; details: human neutrophils activated with E. coli lipopolysaccharide, 1 hour at 37° C.; control = 100%; FIG. 2A / FIG. 2B
# Procedure: (§1) Neutrophils were collected from blood. Specifically, neutrophils were isolated from whole blood collected from healthy humans or dogs using Polymorphprep (Cosmo Bio). The separated neutrophil samples were centrifuged at 2000 rpm for about 40 minutes, then the supernatant was removed, and the residue was transferred to RPMI (SIGMA) medium supplemented with 10-mass % fetal bovine serum (Tissue Culture Biologicals, USA) and diluted to obtain a cell count of 4×10^6 cells/ml, preparing human and canine neutrophil suspensions, respectively. […] The neutrophil adhesion rate was determined as follows. The value obtained by quantifying the activated neutrophils adhered to the wells in the control without containing lysozyrne-chitosan complex or decanoic acid was set as 100%, and compared with the value obtained by quantifying the activated neutrophils adhered to the wells in the same way for the test substances in each Example and Comparative Example. Neutrophil Adhesion Rate (%)=[Quantitative Value of Adhesive Activated Neutrophils in Each Example and Comparative Example]/[Quantitative Value of Adhesive Activated Neutrophils in Control]×100 In the present invention, the ability to suppress the neutrophil adhesive reaction was evaluated by the following procedure. […]
# [2] = test system: canine neutrophil suspension; assay: Neutrophil adhesion test with LPS-activated canine neutrophils (96-well plate, crystal violet, OD620 and microscopy); assay type: cell-based, dogs; details: 0.2 mg/ml lysozyme-chitosan complex and/or 0.4 mg/ml decanoic acid, magnification 40 times, FIG. 3B to 3D
# Procedure: as §1
smiles,measurement,setting,value
CCCCCCCCCC(=O)O [decanoic acid],neutrophil adhesion rate (%) as the concentration of test substance increases,[1],did not decrease
same,distribution of adherent neutrophils stained with crystal violet (photomicrograph),[2],widely distributed
